From US20200308170A1, “KRAS G12C INHIBITORS” (Mirati Therapeutics, Inc., priority 2017, published 2020) come the findings set out here.

KRas G12C, sequence (P01116 1-188 isoform P01116-2 G12C): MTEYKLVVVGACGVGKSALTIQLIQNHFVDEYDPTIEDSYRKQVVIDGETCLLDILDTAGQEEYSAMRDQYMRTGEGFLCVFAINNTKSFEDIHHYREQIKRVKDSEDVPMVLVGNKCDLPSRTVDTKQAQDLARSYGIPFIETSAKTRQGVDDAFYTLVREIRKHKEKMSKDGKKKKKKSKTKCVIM

The assay concerns the target KRas G12C (Homo sapiens, UniProt P01116, G12C). The experiment in a line: Inhibition of KRas G12C in NCI-H358 cells measured by phosphorylated ERK (Phospho-ERK). The format is cell-based. The conditions noted are these: 3 hours, 4 parameter fit, read-out: IC50 (pERK(Thr202/Tyr204) signal normalized with GAPDH). The method, then: Cells were plated in poly-D-Lysine coated 96-well plates at a concentration of 50,000 cells/well and allowed to attach for 8-12 hours. Diluted compounds were then added at a final concentration of 0.5% DMSO. After 3 hours, the medium was removed, 150 μL of 4% formaldehyde was added and the plates were incubated for 20 minutes. The plates were washed with PBS, and permeabilized using 150 μL of ice cold 100% methanol for 10 minutes. Non-specific antibody binding to the plates was blocked using 100 μL Licor Blocking Buffer (Li-Cor Biotechnology, Lincoln Nebr.) for 1 hour at room temperature. Positive control samples and samples lacking cells were parallel processed with test samples as standards.
The amount Phospho-ERK was determined using an antibody specific for the phosphorylated form of ERK and compared to the amount of GAPDH. […] The plates were incubated for 2 hours at room temperature. The plates were washed with PBS+0.05% Tween 20.
Secondary antibodies used to visualize primary antibodies were added as follows: Anti-rabbit-680 diluted 1:1000 and Anti-mouse-800 diluted 1:1000 in Licor Block+0.05% Tween 20 and incubated for 1 hour at room temperature. The plates were washed with PBS+0.05% Tween 20. A 100 μL aliquot of PBS was added to each well and the plates were read on a LICOR AERIUS plate reader.
The pERK(Thr202/Tyr204) signal was normalized with the GAPDH signal and percent of DMSO control values were calculated. IC50 values were generated using a 4 parameter fit of the dose response curve.
Consider `C=C(F)C(=O)N1CCN(c2nc(OCC3COCCO3)nc3c2CCN(c2cccc4ccc(F)c(Cl)c24)C3)C[C@@H]1CC#N` (stereo partly drawn) [Example 201], for which the IC50 lay in the range of 0.1 to 1000 nM.

Turning to `C=C(F)C(=O)N1CCN(c2nc(OCC34CCCN3CCC4)nc3c2CCN(c2cccc4ccc(F)c(Cl)c24)C3)C[C@@H]1CC#N` [Example 138, (S)-2-(4-(7-(8-chloro-7-fluoronaphthalen-1-yl)-2-((tetrahydro-1H-pyrrolizin-7a(5H)-yl)methoxy)-5,6,7,8-tetrahydropyrido[3,4-d]pyrimidin-4-yl)-1-(2-fluoroacryloyl)piperazin-2-yl)acetonitrile], the IC50 was 0.1 to 1000 nM.

Turning to `C=C(F)C(=O)N1CCN(c2nc(OC3CN(CCC#N)C3)nc3c2CCN(c2cccc4ccc(F)c(Cl)c24)C3)C[C@@H]1CC#N` [Example 157], the IC50 was 1000 to 10000 nM.

As for `COC/C=C/C(=O)N1CCN(c2nc(OC[C@@H]3CC(F)(F)CN3C)nc3c2CCN(c2cccc4cccc(C)c24)C3)C[C@@H]1CC#N` [Example 60, 2-((S)-4-(2-(((S)-4,4-difluoro-1-methylpyrrolidin-2-yl)methoxy)-7-(8-methylnaphthalen-1-yl)-5,6,7,8-tetrahydropyrido[3,4-d]pyrimidin-4-yl)-1-((E)-4-methoxybut-2-enoyl)piperazin-2-yl)acetonitrile], the IC50 was in the range of 0.1 to 1000 nM.

Take `C=C(F)C(=O)N1CCN(c2nc(OCC3CN(C)CCC34CN(C)C4)nc3c2CCN(c2cccc4ccc(F)c(Cl)c24)C3)C[C@@H]1CC#N` (stereo partly drawn) [Example 162]: the IC50 lay in the range of 0.1 to 1000 nM.

For the compound `C=C(F)C(=O)N1CCN(c2nc(OCC(C)N3CCOCC3)nc3c2CCN(c2cccc4ccc(F)c(Cl)c24)C3)C[C@@H]1CC#N` (stereo partly drawn) [Example 177], the IC50 lay in the range of 0.1 to 1000 nM.

For the compound `C=C(F)C(=O)N1CCN(c2nc(OCC3CCN3CC)nc3c2CCN(c2cccc4ccc(F)c(Cl)c24)C3)C[C@@H]1CC#N` (stereo partly drawn) [Example 179], the IC50 was in the range of 0.1 to 1000 nM.

As for `C=C(F)C(=O)N1CCN(c2nc(OC[C@@H]3C[C@@H](F)CN3C(C)C)nc3c2CCN(c2cccc4ccc(F)c(Cl)c24)C3)C[C@@H]1CC#N` [Example 183], the IC50 is 0.1 to 1000 nM.

With `C=C(F)C(=O)N1CCN(c2nc(OCC34CCCN3CCC4)nc3c2CCN(c2cccc4cccc(Cl)c24)C3)C[C@@H]1CC#N` [Example 105, (S)-2-(4-(7-(8-chloronaphthalen-1-yl)-2-((tetrahydro-1H-pyrrolizin-7a(5H)-yl)methoxy)-5,6,7,8-tetrahydropyrido[3,4-d]pyrimidin-4-yl)-1-(2-fluoroacryloyl)piperazin-2-yl)acetonitrile], the IC50 lay in the range of 0.1 to 1000 nM.

Regarding `C=C(F)C(=O)N1CCN(c2nc(OC[C@@H]3CCCN3C)nc3c2CCN(c2cccc4ccc(F)c(Cl)c24)C3)C[C@@H]1CC#N` [Example 133], the IC50 fell in the range of 0.1 to 1000 nM.

On to `C=C(F)C(=O)N1CCN(c2nc(OCC3CC4(CC4)CN3C)nc3c2CCN(c2cccc4ccc(F)c(Cl)c24)C3)C[C@@H]1CC#N` (stereo partly drawn) [Example 160], for which the IC50 was in the range of 0.1 to 1000 nM.

In the case of `C=C(F)C(=O)N1CCN(c2nc(OCC3(CC)CCCN3C)nc3c2CCN(c2cccc4ccc(F)c(Cl)c24)C3)C[C@@H]1CC#N` (stereo partly drawn) [Example 175], the IC50 is 0.1 to 1000 nM.

Regarding `C=C(F)C(=O)N1CCN(c2nc(OC[C@@H]3CCCN3C)nc3c2CCN(c2cccc4ccc(F)c(C)c24)C3)C[C@@H]1CC#N` [Example 131, 2-((S)-4-(7-(7-fluoro-8-methylnaphthalen-1-yl)-2-(((S)-1-methylpyrrolidin-2-yl)methoxy)-5,6,7,8-tetrahydropyrido[3,4-d]pyrimidin-4-yl)-1-(2-fluoroacryloyl)piperazin-2-yl)acetonitrile], the IC50 lay in the range of 0.1 to 1000 nM.

With `C=C(F)C(=O)N1CCN(c2nc(OC3CCCN(C(C)C)C3)nc3c2CCN(c2cccc4ccc(F)c(Cl)c24)C3)C[C@@H]1CC#N` (stereo partly drawn) [Example 152], the IC50 was 1000 to 10000 nM.

Turning to `C=C(F)C(=O)N1CCN(c2nc(OCC34CCCN3C(C)CC4)nc3c2CCN(c2cccc4ccc(F)c(Cl)c24)C3)C[C@@H]1CC#N` (stereo partly drawn) [Example 186], the IC50 was in the range of 0.1 to 1000 nM.

For `C=C(F)C(=O)N1CCN(c2nc(OCC(C)N3CCCCC3)nc3c2CCN(c2cccc4ccc(F)c(Cl)c24)C3)C[C@@H]1CC#N` (stereo partly drawn) [Example 158], the IC50 fell in the range of 0.1 to 1000 nM.

Regarding `C=C(F)C(=O)N1CCN(c2nc(OC3CCN(C(C)C)C3)nc3c2CCN(c2cccc4ccc(F)c(Cl)c24)C3)C[C@@H]1CC#N` (stereo partly drawn) [Example 150], the IC50 was in the range of 0.1 to 1000 nM.

In the case of `C=C(F)C(=O)N1CCN(c2nc(OC[C@@H]3C[C@@H](OC)CN3)nc3c2CCN(c2cccc4ccc(F)c(Cl)c24)C3)C[C@@H]1CC#N` [Example 210, 2-((S)-4-(7-(8-chloro-7-fluoronaphthalen-1-yl)-2-(((2S,4R)-4-methoxypyrrolidin-2-yl)methoxy)-5,6,7,8-tetrahydropyrido[3,4-d]pyrimidin-4-yl)-1-(2-fluoroacryloyl)piperazin-2-yl)acetonitrile], the IC50 was 0.1 to 1000 nM.

Regarding `C=C(F)C(=O)N1CCN(c2nc(OCCNCC(F)F)nc3c2CCN(c2cccc4ccc(F)c(Cl)c24)C3)C[C@@H]1CC#N` [Example 211, (S)-2-(4-(7-(8-chloro-7-fluoronaphthalen-1-yl)-2-(2-((2,2-difluoroethyl)amino)ethoxy)-5,6,7,8-tetrahydropyrido[3,4-d]pyrimidin-4-yl)-1-(2-fluoroacryloyl)piperazin-2-yl)acetonitrile], the IC50 lay in the range of 0.1 to 1000 nM.

As to `C=C(F)C(=O)N1CCN(c2nc(OCC3CCN3C(C)(C)C)nc3c2CCN(c2cccc4cccc(C)c24)C3)C[C@@H]1CC#N` (stereo partly drawn) [Example 74, 2-((2S)-4-(2-((1-(tert-butyl)azetidin-2-yl)methoxy)-7-(8-methylnaphthalen-1-yl)-5,6,7,8-tetrahydropyrido[3,4-d]pyrimidin-4-yl)-1-(2-fluoroacryloyl)piperazin-2-yl)acetonitrile], the IC50 lay in the range of 0.1 to 1000 nM.

Turning to `C=C(F)C(=O)N1CCN(c2nc(OC[C@@H]3CC(F)(F)CN3C)nc3c2CCN(c2cccc4ccc(F)c(Cl)c24)C3)C[C@@H]1CC#N` [Example 169], the IC50 was in the range of 0.1 to 1000 nM.

Turning to `C=C(F)C(=O)N1CCN(c2nc(OCC3CCCO3)nc3c2CCN(c2cccc4ccc(F)c(Cl)c24)C3)C[C@@H]1CC#N` (stereo partly drawn) [Example 176], the IC50 was 0.1 to 1000 nM.

`C=C(F)C(=O)N1CCN(c2nc(OCC3N(C)CC3(C)C)nc3c2CCN(c2cccc4ccc(F)c(Cl)c24)C3)C[C@@H]1CC#N` (stereo partly drawn) [Example 187]: the IC50 lay within 0.1 to 1000 nM.

For the compound `C=C(F)C(=O)N1CCN(c2nc(OCC3CN(C)C3)nc3c2CCN(c2cccc4ccc(F)c(Cl)c24)C3)C[C@@H]1CC#N` [Example 173], the IC50 fell in the range of 0.1 to 1000 nM.

As to `C=C(F)C(=O)N1CCN(c2nc(OCC34CCCN3CC3(CC3)C4)nc3c2CCN(c2cccc4ccc(F)c(Cl)c24)C3)C[C@@H]1CC#N` (stereo partly drawn) [Example 184], the IC50 lay in the range of 0.1 to 1000 nM.

In the case of `C=C(F)C(=O)N1CCN(c2nc(OCC3(C)CCCN3C)nc3c2CCN(c2cccc4ccc(F)c(Cl)c24)C3)C[C@@H]1CC#N` (stereo partly drawn) [Example 139, 2-((2S)-4-(7-(8-chloro-7-fluoronaphthalen-1-yl)-2-((1,2-dimethylpyrrolidin-2-yl)methoxy)-5,6,7,8-tetrahydropyrido[3,4-d]pyrimidin-4-yl)-1-(2-fluoroacryloyl)piperazin-2-yl)acetonitrile], the IC50 is 0.1 to 1000 nM.

As for `C=C(F)C(=O)N1CCN(c2nc(OCC34CCCN3CCC4)nc3c2CCN(c2cccc(F)c2C(F)(F)F)C3)C[C@@H]1CC#N` [Example 140], the IC50 was 0.1 to 1000 nM.

For `C=C(F)C(=O)N1CCN(c2nc(OCC34CCCN3CCC4)nc3c2CCN(c2cccc(C)c2C)C3)C[C@@H]1CC#N` [Example 142], the IC50 lay within 0.1 to 1000 nM.

For the compound `C=C(F)C(=O)N1CCN(c2nc(OCC34CCC(CC3)CN4C)nc3c2CCN(c2cccc4ccc(F)c(Cl)c24)C3)C[C@@H]1CC#N` [Example 166], the IC50 fell in the range of 0.1 to 1000 nM.

With `C=C(F)C(=O)N1CCN(c2nc(OC[C@H]3CN(C)CCO3)nc3c2CCN(c2cccc4ccc(F)c(Cl)c24)C3)C[C@@H]1CC#N` [Example 195], the IC50 was in the range of 0.1 to 1000 nM.

For the compound `C=C(F)C(=O)N1CCN(c2nc(OC[C@@H]3C[C@@H](F)CN3)nc3c2CCN(c2cccc4ccc(F)c(Cl)c24)C3)C[C@@H]1CC#N` [Example 209, 2-((S)-4-(7-(8-chloro-7-fluoronaphthalen-1-yl)-2-(((2S,4R)-4-fluoropyrrolidin-2-yl)methoxy)-5,6,7,8-tetrahydropyrido[3,4-d]pyrimidin-4-yl)-1-(2-fluoroacryloyl)piperazin-2-yl)acetonitrile], the IC50 lay within 0.1 to 1000 nM.

`C=C(F)C(=O)N1CCN(c2nc(OCC34CC(N(C)C)(C3)C4)nc3c2CCN(c2cccc4ccc(F)c(Cl)c24)C3)C[C@@H]1CC#N` [Example 188]: the IC50 lay in the range of 0.1 to 1000 nM.

Consider `C=C(F)C(=O)N1CCN(c2nc(OCCNCC(F)(F)F)nc3c2CCN(c2cccc4ccc(F)c(Cl)c24)C3)C[C@@H]1CC#N` [Example 200], for which the IC50 fell in the range of 0.1 to 1000 nM.

As for `C=C(F)C(=O)N1CCN(c2nc(OCC34CCCN3CCC4)nc3c2CCN(c2cccc(C)c2C(F)(F)F)C3)C[C@@H]1CC#N` [Example 144], the IC50 was in the range of 0.1 to 1000 nM.

As for `C=C(F)C(=O)N1CCN(c2nc(OCC34CCCN3CCC4)nc3c2CCN(c2cccc4cccc(Br)c24)C3)C[C@@H]1CC#N` [Example 143], the IC50 lay in the range of 0.1 to 1000 nM.

On to `C=C(F)C(=O)N1CCN(c2nc(OCC(C)N3C[C@@H](C)O[C@@H](C)C3)nc3c2CCN(c2cccc4ccc(F)c(Cl)c24)C3)C[C@@H]1CC#N` (stereo partly drawn) [Example 164], for which the IC50 is 1000 to 10000 nM.
